# Measured values as given in patent US8507526B2, “4- [2- (4-methylphenylsulfanyl) phenyl] piperidine for the treatment of irritable bowel syndrome (IBS)” (H. Lundbeck A/S, priority 2007, dated 2013).
# Tested on: chronic constriction nerve injury, peripheral mononeuropathy
# Experiment: Chronic constriction nerve injury model of neuropathic pain (Von Frey filaments, Hargreaves Plantar Device)
# Assay type: in vivo
# Settings: rats
# Description: A peripheral mononeuropathy was induced in the right hind limb of rats following a chronic constriction nerve injury, and the development of mechanical allodynia and thermal hyperalgesia was monitored using established behavioural tests (Von Frey filaments and the Hargreaves Plantar Device, respectively).
compound,measurement,setting,value
"Cc1ccc(Sc2ccccc2C2CCNCC2)cc1 [Compound I, 4-[2-(4-methylphenylsulfanyl)phenyl]piperidine]","paw withdrawal threshold, Von Frey filaments (mechanical allodynia)","subcutaneous 1.9, 4.8 and 7.9 mg/kg in 10% hydroxypropyl-betacyclodextrin, right hind paw",did not increase the paw withdrawal threshold
same,"paw withdrawal latency, thermal hyperalgesia (Hargreaves Plantar Device)",subcutaneous 4.8 and 7.9 mg/kg,significant increases in paw withdrawal latency
